Entries after “also recorded” stand apart in the source; their conditions may differ.
What was measured:
[1] = system: MDCK cells (ATCC # CCL-34); experiment: Cytotoxicity of MSM; format: cell-based, Canis; settings: for Test Product Cytotoxicity (CPE): MDCK
Source text: Determination of test product cytotoxicity.
(§1) B. Toxicity Control for Pre-Treatment Test.

[2] = system: MRC-5 (Human lung fibroblasts) cells; experiment: Toxicity control for Pre-Treatment test; format: cell-based
Source text: as §1

[3] = system: Vero (African green monkey kidney) cells; experiment: Toxicity control for Pre-Treatment test; format: cell-based
Source text: as §1

[4] = system: Lactobacillus acidophilus; experiment: Probiotic growth in media supplemented with MSM; format: cell-based
Source text: Plates were then counted. […] Data are presented in Cfu/mL.

[5] = system: Candida albicans; experiment: USP <51> AET in cosmetic cream/composition; format: cell-based; settings: for AET microorganism count: 48 hrs-28 days; for Log Reduction from Initial Microorganism Inoculum: 14, 28 Days
[6] = system: ATCC strain 8739 Escherichia coli; experiment: Bromcresol Purple color change with MSM; format: cell-based
Description: To investigate whether MSM functions as a carrier/transporter, the ability of MSM to transport Bromcresol into the E. coli was evaluated. Bromcresol Purple is an indicator dye that turns yellow in the presence of E. coli bacteria. It is non-toxic to the organism. […] All concentrations were plated out to 10^−7 dilutions to ascertain the log reduction.
Flake OptiMSM was weighed out using a certified Mettler Toledo AG245 balance SN: 1115210833 and aliquoted for each concentration. […] Tubes were cooled to room temperature which was approximately 20° C. All tubes were then spiked with the same dilution of Escherichia coli that gave a level of colony forming units at 6.0×10^6/mL (6.8). The tubes were then incubated at 25° C. Daily observation for color change was performed during the first seven days. The tubes were mixed periodically to ensure that the OptiMSM was well equilibrated at all times. A positive and negative control was ascertained.

[7] = system: Bacillus coagulans; experiment: Growth in simulated gastric acid supplemented with MSM; format: cell-based

## Methylsulfonylmethane [MSM]
[1]; 0.5%
  Test Product Cytotoxicity (CPE): 00
[1]; 1%
  Test Product Cytotoxicity (CPE): 00
[1]; 2%
  Test Product Cytotoxicity (CPE): 00
[1]; 3%
  Test Product Cytotoxicity (CPE): 00
[1]; 4%
  Test Product Cytotoxicity (CPE): 00
[1]; 5%
  Test Product Cytotoxicity (CPE): 00
[1]; MSM 6% through 0.5%
  cytotoxic effect: no visible cytotoxic effect
[1]; kills 50% of uninfected cells
  TC50: approximately 7%
[2]; MRC-5, 0.5%
  Test Product Cytotoxicity (CPE): 00
[2]; MRC-5, 1%
  Test Product Cytotoxicity (CPE): 00
[2]; MRC-5, 2%
  Test Product Cytotoxicity (CPE): 00
[2]; MRC-5, 3%
  Test Product Cytotoxicity (CPE): 00
[2]; MRC-5, 4%
  Test Product Cytotoxicity (CPE): 00
[2]; MRC-5, 5%
  Test Product Cytotoxicity (CPE): 00
[2]; MRC-5, 6%
  Test Product Cytotoxicity (CPE): 00
[3]; 0.5%
  Test Product Cytotoxicity (CPE): 00
[3]; 1%
  Test Product Cytotoxicity (CPE): 00
[3]; 2%
  Test Product Cytotoxicity (CPE): 00
[3]; 3%
  Test Product Cytotoxicity (CPE): 00
[3]; 4%
  Test Product Cytotoxicity (CPE): 00
[3]; 5%
  Test Product Cytotoxicity (CPE): 00
[3]; 6%
  Test Product Cytotoxicity (CPE): 00
[3]; 7%
  Test Product Cytotoxicity (CPE): 00
[4]; 0.125% MSM, 0 h
  Growth of Lactobacillus acidophilus: 1.37 log10 CFU/mL
[4]; 0.125% MSM, 8 h
  Growth of Lactobacillus acidophilus: 2.19 log10 CFU/mL
[4]; 0.125% MSM, 16 h
  Growth of Lactobacillus acidophilus: 4.83 log10 CFU/mL
[4]; 0.125% MSM, 24 h
  Growth of Lactobacillus acidophilus: 7.14 log10 CFU/mL
[4]; 0.125% MSM, 32 h
  Growth of Lactobacillus acidophilus: 9.15 log10 CFU/mL
[4]; 0.125% MSM, 40 h
  Growth of Lactobacillus acidophilus: 9.53 log10 CFU/mL
[4]; 0.125% MSM, 48 h
  Growth of Lactobacillus acidophilus: 9.59 log10 CFU/mL
[4]; 0.125% MSM, 56 h
  Growth of Lactobacillus acidophilus: 10.16 log10 CFU/mL
[4]; 0.125% MSM, 64 h
  Growth of Lactobacillus acidophilus: 9.40 log10 CFU/mL
[4]; 0.125% MSM, 72 h
  Growth of Lactobacillus acidophilus: 8.56 log10 CFU/mL
[4]; 0.2% MSM, 0 h
  Growth of Lactobacillus acidophilus: 1.37 log10 CFU/mL
[4]; 0.2% MSM, 8 h
  Growth of Lactobacillus acidophilus: 1.43 log10 CFU/mL
[4]; 0.2% MSM, 16 h
  Growth of Lactobacillus acidophilus: 5.74 log10 CFU/mL
[4]; 0.2% MSM, 24 h
  Growth of Lactobacillus acidophilus: 8.19 log10 CFU/mL
[4]; 0.2% MSM, 32 h
  Growth of Lactobacillus acidophilus: 9.85 log10 CFU/mL
[4]; 0.2% MSM, 40 h
  Growth of Lactobacillus acidophilus: 9.50 log10 CFU/mL
[4]; 0.2% MSM, 48 h
  Growth of Lactobacillus acidophilus: 9.32 log10 CFU/mL
[4]; 0.2% MSM, 56 h
  Growth of Lactobacillus acidophilus: 9.26 log10 CFU/mL
[4]; 0.2% MSM, 64 h
  Growth of Lactobacillus acidophilus: 9.37 log10 CFU/mL
[4]; 0.2% MSM, 72 h
  Growth of Lactobacillus acidophilus: 8.36 log10 CFU/mL
[4]; 0.50% MSM, 0 h
  Growth of Lactobacillus acidophilus: 1.30 log10 CFU/mL
[4]; 0.50% MSM, 8 h
  Growth of Lactobacillus acidophilus: 2.01 log10 CFU/mL
[4]; 0.50% MSM, 16 h
  Growth of Lactobacillus acidophilus: 3.82 log10 CFU/mL
[4]; 0.50% MSM, 24 h
  Growth of Lactobacillus acidophilus: 6.47 log10 CFU/mL
[4]; 0.50% MSM, 32 h
  Growth of Lactobacillus acidophilus: 9.15 log10 CFU/mL
[4]; 0.50% MSM, 40 h
  Growth of Lactobacillus acidophilus: 9.58 log10 CFU/mL
[4]; 0.50% MSM, 48 h
  Growth of Lactobacillus acidophilus: 10.45 log10 CFU/mL
[4]; 0.50% MSM, 56 h
  Growth of Lactobacillus acidophilus: 9.33 log10 CFU/mL
[4]; 0.50% MSM, 64 h
  Growth of Lactobacillus acidophilus: 9.53 log10 CFU/mL
[4]; 0.50% MSM, 72 h
  Growth of Lactobacillus acidophilus: 8.57 log10 CFU/mL
[4]; 1% MSM, 0 h
  Growth of Lactobacillus acidophilus: 1.48 log10 CFU/mL
[4]; 1% MSM, 8 h
  Growth of Lactobacillus acidophilus: 2.25 log10 CFU/mL
[4]; 1% MSM, 16 h
  Growth of Lactobacillus acidophilus: 3.79 log10 CFU/mL
[4]; 1% MSM, 24 h
  Growth of Lactobacillus acidophilus: 6.77 log10 CFU/mL
[4]; 1% MSM, 32 h
  Growth of Lactobacillus acidophilus: 9.05 log10 CFU/mL
[4]; 1% MSM, 40 h
  Growth of Lactobacillus acidophilus: 9.49 log10 CFU/mL
[4]; 1% MSM, 48 h
  Growth of Lactobacillus acidophilus: 10.98 log10 CFU/mL
[4]; 1% MSM, 56 h
  Growth of Lactobacillus acidophilus: 10.90 log10 CFU/mL
[4]; 1% MSM, 64 h
  Growth of Lactobacillus acidophilus: 10.34 log10 CFU/mL
[4]; 1% MSM, 72 h
  Growth of Lactobacillus acidophilus: 8.68 log10 CFU/mL
[4]; 5% MSM, 0 h
  Growth of Lactobacillus acidophilus: 1.52 log10 CFU/mL
[4]; 5% MSM, 8 h
  Growth of Lactobacillus acidophilus: 1.37 log10 CFU/mL
[4]; 5% MSM, 16 h
  Growth of Lactobacillus acidophilus: 2.69 log10 CFU/mL
[4]; 5% MSM, 24 h
  Growth of Lactobacillus acidophilus: 5.36 log10 CFU/mL
[4]; 5% MSM, 32 h
  Growth of Lactobacillus acidophilus: 8.91 log10 CFU/mL
[4]; 5% MSM, 40 h
  Growth of Lactobacillus acidophilus: 9.25 log10 CFU/mL
[4]; 5% MSM, 48 h
  Growth of Lactobacillus acidophilus: 10.88 log10 CFU/mL
[4]; 5% MSM, 56 h
  Growth of Lactobacillus acidophilus: 10.01 log10 CFU/mL
[4]; 5% MSM, 64 h
  Growth of Lactobacillus acidophilus: 8.95 log10 CFU/mL
[4]; 5% MSM, 72 h
  Growth of Lactobacillus acidophilus: 6.66 log10 CFU/mL
[4]; […] MSM, 0 h
  Growth of Lactobacillus acidophilus: 1.48 log10 CFU/mL
[4]; […] MSM, 8 h
  Growth of Lactobacillus acidophilus: 2.20 log10 CFU/mL
[4]; […] MSM, 16 h
  Growth of Lactobacillus acidophilus: 4.24 log10 CFU/mL
[4]; […] MSM, 24 h
  Growth of Lactobacillus acidophilus: 5.78 log10 CFU/mL
[4]; […] MSM, 32 h
  Growth of Lactobacillus acidophilus: 9.16 log10 CFU/mL
[4]; […] MSM, 40 h
  Growth of Lactobacillus acidophilus: 9.35 log10 CFU/mL
[4]; […] MSM, 48 h
  Growth of Lactobacillus acidophilus: 10.16 log10 CFU/mL
[4]; […] MSM, 56 h
  Growth of Lactobacillus acidophilus: 11.10 log10 CFU/mL
[4]; […] MSM, 64 h
  Growth of Lactobacillus acidophilus: 11.58 log10 CFU/mL
[4]; […] MSM, 72 h
  Growth of Lactobacillus acidophilus: 8.44 log10 CFU/mL
[5]; 10% MSM in Preservative Free Cosmetic Composition #2, 48 hours after inoculation
  AET microorganism count: 9.0 × 10^2
[5]; 10% MSM in Preservative Free Cosmetic Composition #2, 7 days after inoculation
  AET microorganism count: <10
[5]; 10% MSM in cosmetic cream without preservative
  AET microorganism count: <10
[5]; 10% MSM in preservative-free jojoba cream
  Log Reduction from Initial Microorganism Inoculum: 4.3 log
[5]; 10% MSM, Composition #1
  Log Reduction from Initial Microorganism Inoculum: 5.3 log
[5]; 10% MSM, Composition #2
  Log Reduction from Initial Microorganism Inoculum: 5.3 log
[6]; 5-7% MSM, Day one
  color change of the broth: color change of the broth to yellow
[6]; 8% MSM, Day one, Day three
  color change of the broth: slight clearing of color; also recorded: turning to the typical yellow color
[6]; 9% MSM, Day 7
  color change of the broth: turning to a yellow color
[6]; 10%-16% MSM, Day 7, 14, 30
  color change of the broth: No color change; also recorded: no signs of change
[6]; concentration tubes 10%-16% MSM, 72 hour incubation
  organism recovery, streaked on MacConkey agar: No organisms were observed
[7]; 5% MSM, 0 hours
  Log Growth of Bacillus coagulans average: 0.26 logs
[7]; 5% MSM, 3 hours
  Log Growth of Bacillus coagulans average: 0 logs
  Log Growth of Bacillus coagulans in duplicate: 0 logs
[7]; 5% MSM, 6 hours
  Log Growth of Bacillus coagulans average: 0 logs
  Log Growth of Bacillus coagulans in duplicate: 0 logs
[7]; 5% MSM, 9 hours
  Log Growth of Bacillus coagulans average: 0 logs
  Log Growth of Bacillus coagulans in duplicate: 0 logs
[7]; 5% MSM, 12 hours
  Log Growth of Bacillus coagulans average: 0 logs
  Log Growth of Bacillus coagulans in duplicate: 0 logs
[7]; 5% MSM, 15 hours
  Log Growth of Bacillus coagulans average: 0.26 logs
[7]; 5% MSM, 24 hours
  Log Growth of Bacillus coagulans average: 0 logs
  Log Growth of Bacillus coagulans in duplicate: 0 logs
[7]; 5% MSM, 48 hours
  Log Growth of Bacillus coagulans average: 0 logs
  Log Growth of Bacillus coagulans in duplicate: 0 logs
[7]; […] MSM, 0 hours
  Log Growth of Bacillus coagulans in duplicate: 0 logs
[7]; […] MSM, 3 hours
  Log Growth of Bacillus coagulans in duplicate: 0 logs
[7]; […] MSM, 9 hours
  Log Growth of Bacillus coagulans average: 0 logs
  Log Growth of Bacillus coagulans in duplicate: 0 logs
[7]; […] MSM, 12 hours
  Log Growth of Bacillus coagulans in duplicate: 0 logs
[7]; […] MSM, 15 hours
  Log Growth of Bacillus coagulans average: 0 logs
  Log Growth of Bacillus coagulans in duplicate: 0 logs
[7]; […] MSM, 24 hours
  Log Growth of Bacillus coagulans average: 0 logs
  Log Growth of Bacillus coagulans in duplicate: 0 logs
[7]; […] MSM, 48 hours
  Log Growth of Bacillus coagulans average: 0 logs
  Log Growth of Bacillus coagulans in duplicate: 0 logs
[7]; […] and 5.0% MSM
  initial recovery, average: 0.26 logs

Reference: patent US20110105623A1 (Biogenic Innovations, LLC, priority 2009, published 2011)
